Laboratory results reported in ChEMBL document CHEMBL4811216, “Chemotherapy for human schistosomiasis: how far have we come? What's new? Where do we go from here?” (RSC Med Chem, 2020).

Columns and labels:
Schistosoma mansoni [1] = assay: Antischistosomal activity against Schistosoma mansoni NRMI schistosomula incubated for 24 hrs; type: functional
Plasmodium falciparum [2] = assay: Antiplasmodial activity against Plasmodium falciparum Dd2 incubated for 72 hrs by SYBR Green1 by fluorometric assay; type: functional, organism-based; details: Dd2, 72 h
Schistosoma japonicum [3] = assay: Antischistosomal activity against Schistosoma japonicum assessed as worm mortality at 5 ug/ml incubated for 72 hrs by microscopic method relative to control; type: functional; details: dose 5 µg/ml
Plasmodium falciparum [4] = assay: Antiplasmodial activity against Plasmodium falciparum 3D7 incubated for 72 hrs by SYBR Green1 by fluorometric assay; type: functional, organism-based; details: 3D7, 72 h
Schistosoma mansoni [5] = assay: Antischistosomal activity against Schistosoma mansoni at 50 uM measured after 96 hrs relative to control; type: functional
Schistosoma mansoni [6] = assay: Antischistosomal activity against Schistosoma mansoni at 50 uM measured after 120 hrs relative to control; type: functional
Schistosoma mansoni [7] = assay: Antischistosomal activity against Schistosoma mansoni LE assessed as worm mortality at 20 uM incubated for 72 hrs by microscopic method relative to control; type: functional
Schistosoma mansoni [8] = assay: Antischistosomal activity against Schistosoma mansoni LE assessed as worm vitality at 20 uM incubated for 24 hrs by microscopic method relative to control; type: functional
Schistosoma mansoni [9] = assay: Antischistosomal activity against adult Schistosoma mansoni measured up to 72 hrs by microscopic method; type: functional, organism-based
Schistosoma mansoni [10] = assay: Antischistosomal activity against adult Schistosoma mansoni assessed as worm mortality at 10 uM measured up to 72 hrs by microscopic method relative to control; type: functional; details: time hrs <=72
Schistosoma mansoni [11] = assay: Antischistosomal activity against Schistosoma mansoni NTS assessed as worm mortality at 10 uM measured up to 72 hrs by microscopic method relative to control; type: functional; details: time hrs <=72
Schistosoma mansoni [12] = assay: Antischistosomal activity against Schistosoma mansoni infected in NMRI mouse assessed as reduction in total worm burden at 400 mg/kg, po measured after 21 days relative to control; type: functional; parameters: scale not given: the % may be the effect or the level left; details: time 21 day
Schistosoma mansoni [13] = assay: Antischistosomal activity against Schistosoma mansoni infected in NMRI mouse assessed as reduction in female worm burden at 400 mg/kg, po measured after 21 days relative to control; type: functional; parameters: scale not given: the % may be the effect or the level left; details: time 21 day
[14] = Cmax in C57BL/6 mouse at 20 mg/kg, po measured after 3 hrs; type: ADME, organism-based; parameters: route oral, dose 20 mg/kg, time 3 hrs; details: in vivo
[15] = Oral bioavailability in C57BL/6 mouse at 20 mg/kg; type: ADME, organism-based; details: in vivo
Schistosoma mansoni [16] = assay: Antischistosomal activity against adult Schistosoma mansoni infected in NMRI mouse assessed as worm burden reduction at 400 mg/kg, po administered as single dose and measured at 21 days post treatment relative to control; type: functional; parameters: scale not given: the % may be the effect or the level left; details: time 21 day
Schistosoma mansoni [17] = assay: Antischistosomal activity against Schistosoma mansoni incubated for 72 hrs by microscopic method; type: functional, organism-based
[18] = Volume of distribution in C57BL/6 mouse at 20 mg/kg, po; type: ADME, organism-based; details: in vivo
[19] = Half life in C57BL/6 mouse at 20 mg/kg, po; type: ADME, organism-based; details: in vivo
Schistosoma japonicum [20] = assay: Antischistosomal activity against juvenile Schistosoma japonicum assessed as reduction in worm vitality at 25 uM incubated for 72 hrs relative to control; type: functional; parameters: scale not given: the % may be the effect or the level left
Schistosoma mansoni [21] = assay: Schistosomicidal-activity against Schistosoma mansoni infected in NIH-Swiss mouse assessed as reduction in skin staged worm burden at 10 mg/kg, ip administered daily for 5 consecutive days relative to control; type: functional; parameters: scale not given: the % may be the effect or the level left
Schistosoma mansoni [22] = assay: schistosomicidal-activity against Schistosoma mansoni infected in NIH-Swiss mouse assessed as reduction in liver-staged worm burden at 10 mg/kg, ip administered daily for 5 consecutive days relative to control; type: functional; parameters: scale not given: the % may be the effect or the level left
Schistosoma mansoni [23] = assay: schistosomicidal-activity against adult Schistosoma mansoni infected in NIH-Swiss mouse assessed as reduction in worm burden at 10 mg/kg, ip administered daily for 5 consecutive days relative to control; type: functional; parameters: scale not given: the % may be the effect or the level left; details: time 5 day

## CC(C)c1cc2c(cc1O)C(=O)C[C@H]1C(C)(C)CCC[C@]21C
Schistosoma mansoni [1]
  LC50: 19100 nM

## CCCCNCC(O)Cn1c2ccc(Cl)cc2c2cc(Cl)ccc21 (stereo not drawn)
Plasmodium falciparum [2]
  IC50: 47 nM
Schistosoma japonicum [3]
  Activity: 100%
Plasmodium falciparum [4]
  IC50: 274 nM

## CN(c1ccc(F)cc1)N(C)C1NC(=O)N(Cc2ccc(Cl)cc2)C1=S (stereo not drawn)
Schistosoma mansoni [5]
  Activity: 100%
Schistosoma mansoni [6]
  Activity: 100%

## COc1cc(OC)c(/C=C2\NC(=O)N(Cc3c(F)cccc3Cl)C2=S)c(OC)c1
Schistosoma mansoni [7]
  Activity: 100%
Schistosoma mansoni [8]
  Activity: 100%

## CCNCCNc1cc(-c2ccc(Cl)cc2)c(C#N)c2nc3ccccc3n12
Schistosoma mansoni [9]
  IC50: 2440 nM
Schistosoma mansoni [10]
  mortality at 10 µM: > 60%
Schistosoma mansoni [11]
  mortality at 10 µM: > 70%
Schistosoma mansoni [12]
  Activity: 58.7%
Schistosoma mansoni [13]
  Activity: 61.3%

## N#Cc1c(C(F)(F)F)cc(NCc2ccccc2F)n2c1nc1cc(Cl)c(Cl)cc12
[14]
  Cmax: 300 nM
[15]
  bioavailability: < 1%
Schistosoma mansoni [16]
  Activity: 69%
Schistosoma mansoni [17]
  IC50: 380 nM
[18]
  Vd: 0.18 L/kg
[19]
  t1/2: 18 min
Schistosoma japonicum [20]
  Activity: <1%

## N#Cc1c(-c2ccccc2)no[n+]1[O-]
Schistosoma mansoni [21]
  Activity: 99%
Schistosoma mansoni [22]
  Activity: 88%
Schistosoma mansoni [23]
  Activity: 94%
